Experimental data: paper PMC11308014 (ACS Omega, 2024)

target: T1, recombinant human dihydrofolate reductase (hDHFR) (Homo sapiens, UniProt P00374); assay: NADPH oxidation, absorbance at […] nm; format: biochemical
T1 construct: gene DHFR; commercial recombinant enzyme (R&D, Bio-Techne)
T1 sequence (P00374 1-187): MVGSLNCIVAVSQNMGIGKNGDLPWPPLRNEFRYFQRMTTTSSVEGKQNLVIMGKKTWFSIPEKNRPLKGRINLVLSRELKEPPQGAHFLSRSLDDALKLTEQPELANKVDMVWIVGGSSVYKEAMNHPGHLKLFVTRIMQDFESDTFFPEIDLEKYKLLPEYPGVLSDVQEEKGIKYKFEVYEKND

Row | IC50 | SMILES
1 | 1.01 µM | CN(Cc1cnc2nc(N)nc(N)c2n1)c1ccc(C(=O)NCCCCCCCC(=O)O)cc1 [compound 6, 6]
2 | 3.03 µM | CN(Cc1cnc2nc(N)nc(N)c2n1)c1ccc(C(=O)NCCS(=O)(=O)O)cc1 [compound 7, 7]
3 | 1.21 µM | CN(Cc1cnc2nc(N)nc(N)c2n1)c1ccc(C(=O)NCCCCCC(=O)O)cc1 [compound 5, 5]
4 | 0.01 µM | CN(Cc1cnc2nc(N)nc(N)c2n1)c1ccc(C(=O)NCCCC(=O)O)cc1 [compound 4, 4]
